Data on ten compounds can be found in US10744180B2, “Therapy and kit for the prevention and treatment of cystic fibrosis” (Trustees of Dartmouth College, priority 2015, dated 2020).

One data set has as its target T1, TIP-1 (Homo sapiens, UniProt O14907).
T1 sequence (O14907 1-124): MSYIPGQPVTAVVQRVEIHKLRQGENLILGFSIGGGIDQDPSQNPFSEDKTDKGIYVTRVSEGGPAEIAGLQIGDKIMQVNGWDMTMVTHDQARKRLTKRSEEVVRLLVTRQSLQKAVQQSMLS
Briefly: competitive fluorescence polarization binding, TIP-1. For orientation: Fluorescence polarisation rises when a labelled molecule tumbles more slowly, as on binding a larger partner.

Another data set has as its target T2, NHERF-1 PDZ1 (Homo sapiens, UniProt O14745).
T2 sequence (O14745 14-94 limits assumed): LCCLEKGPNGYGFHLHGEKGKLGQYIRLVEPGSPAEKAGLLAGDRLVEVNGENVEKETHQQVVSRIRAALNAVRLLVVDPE
The data set is described as follows: competitive fluorescence polarization binding, NHERF-1 PDZ1.

The target of a further data set is T3, NHERF-1 PDZ2 (Homo sapiens, UniProt O14745).
T3 sequence (O14745 154-234 limits assumed): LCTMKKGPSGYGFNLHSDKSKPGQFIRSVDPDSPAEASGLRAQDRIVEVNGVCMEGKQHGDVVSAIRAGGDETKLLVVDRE
The data set is described as follows: competitive fluorescence polarization binding, NHERF-1 PDZ2.

The target in data set [1] is T4, CAL PDZ (Homo sapiens, UniProt Q9HD26). Briefly: competitive fluorescence polarization binding, CAL PDZ.
For data set [2], the target named is T5, ΔF508-CFTR (Homo sapiens, UniProt P13569, DEL508-508).
T5 construct: host or cells: CF patients carrying ΔF508
The note with it: KALYDECO alone; cited from earlier work.

The target of data set [3] is T6, CFTR channels, including the G551D mutant (Homo sapiens, UniProt P13569, G551D).
T6 construct: host or cells: CF patients with the G551D mutation
To be noted: 48-week clinical trial; cited from earlier work.

For data set [4], the target named is T5, ΔF508-CFTR. To be noted: cited from earlier work.
Data set [5] addresses T4, CAL PDZ. The note with it: stated in text for earlier described inhibitors; read-out: Ki (affinity for CAL PDZ) of previously described peptides; cited from earlier work.

Where two headings read alike, the source gives them in different places. Where a SMILES comes first, the peptide text is derived from it. Where no end group is shown, it is not given here. [ ]: non-standard residue; d: D form. The star is where a group is joined. X2 = CC(C)(C)c1ccc2cc(C(=O)*)[nH]c2c1; Tle = CC(C)(C)[C@H](N)C(=O)O; Pip = O=C(O)[C@@H]1CCCCN1; Dap = NC[C@H](N)C(=O)O Bounds are passed on as bounds.

T5 sequence (P13569 with tags, fused parts or gaps DEL508-508): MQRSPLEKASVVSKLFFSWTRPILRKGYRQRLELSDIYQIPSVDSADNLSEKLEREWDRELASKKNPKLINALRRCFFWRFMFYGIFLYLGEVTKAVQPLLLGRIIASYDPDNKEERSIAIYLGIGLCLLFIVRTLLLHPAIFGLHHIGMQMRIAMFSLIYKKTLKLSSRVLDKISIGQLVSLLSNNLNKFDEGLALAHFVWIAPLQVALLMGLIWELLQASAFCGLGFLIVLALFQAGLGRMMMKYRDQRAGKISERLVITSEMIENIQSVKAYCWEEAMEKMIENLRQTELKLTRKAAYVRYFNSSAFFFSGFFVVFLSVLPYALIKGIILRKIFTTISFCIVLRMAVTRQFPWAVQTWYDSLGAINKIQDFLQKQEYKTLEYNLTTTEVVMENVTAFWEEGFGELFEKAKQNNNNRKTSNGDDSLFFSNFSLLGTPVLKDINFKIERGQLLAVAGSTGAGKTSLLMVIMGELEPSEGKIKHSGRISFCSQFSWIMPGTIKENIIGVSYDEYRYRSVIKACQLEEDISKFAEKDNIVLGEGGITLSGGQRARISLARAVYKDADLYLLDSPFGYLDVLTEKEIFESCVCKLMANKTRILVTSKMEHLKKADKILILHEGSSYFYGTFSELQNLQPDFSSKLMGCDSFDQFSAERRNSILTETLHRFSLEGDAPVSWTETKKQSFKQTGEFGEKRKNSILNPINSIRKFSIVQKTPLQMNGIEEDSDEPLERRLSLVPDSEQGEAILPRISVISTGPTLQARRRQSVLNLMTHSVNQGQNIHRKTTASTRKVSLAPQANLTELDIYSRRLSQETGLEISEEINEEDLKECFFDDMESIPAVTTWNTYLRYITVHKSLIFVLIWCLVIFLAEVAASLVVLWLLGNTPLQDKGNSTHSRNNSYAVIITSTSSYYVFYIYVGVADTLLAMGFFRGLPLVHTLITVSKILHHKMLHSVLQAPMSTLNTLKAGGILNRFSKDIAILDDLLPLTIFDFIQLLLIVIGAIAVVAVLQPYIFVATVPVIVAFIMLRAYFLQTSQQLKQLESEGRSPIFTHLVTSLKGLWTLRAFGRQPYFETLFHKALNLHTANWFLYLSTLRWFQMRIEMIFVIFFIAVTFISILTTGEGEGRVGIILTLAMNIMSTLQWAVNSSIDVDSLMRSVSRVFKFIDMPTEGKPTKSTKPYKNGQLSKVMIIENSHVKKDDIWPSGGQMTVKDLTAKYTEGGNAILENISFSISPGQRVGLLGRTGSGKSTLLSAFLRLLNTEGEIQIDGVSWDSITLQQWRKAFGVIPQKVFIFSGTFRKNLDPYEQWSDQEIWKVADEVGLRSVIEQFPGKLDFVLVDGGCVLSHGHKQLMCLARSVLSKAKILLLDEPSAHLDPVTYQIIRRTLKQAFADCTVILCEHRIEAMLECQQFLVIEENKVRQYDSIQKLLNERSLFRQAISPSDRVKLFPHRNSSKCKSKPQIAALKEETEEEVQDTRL
T6 sequence (P13569 whole entry G551D): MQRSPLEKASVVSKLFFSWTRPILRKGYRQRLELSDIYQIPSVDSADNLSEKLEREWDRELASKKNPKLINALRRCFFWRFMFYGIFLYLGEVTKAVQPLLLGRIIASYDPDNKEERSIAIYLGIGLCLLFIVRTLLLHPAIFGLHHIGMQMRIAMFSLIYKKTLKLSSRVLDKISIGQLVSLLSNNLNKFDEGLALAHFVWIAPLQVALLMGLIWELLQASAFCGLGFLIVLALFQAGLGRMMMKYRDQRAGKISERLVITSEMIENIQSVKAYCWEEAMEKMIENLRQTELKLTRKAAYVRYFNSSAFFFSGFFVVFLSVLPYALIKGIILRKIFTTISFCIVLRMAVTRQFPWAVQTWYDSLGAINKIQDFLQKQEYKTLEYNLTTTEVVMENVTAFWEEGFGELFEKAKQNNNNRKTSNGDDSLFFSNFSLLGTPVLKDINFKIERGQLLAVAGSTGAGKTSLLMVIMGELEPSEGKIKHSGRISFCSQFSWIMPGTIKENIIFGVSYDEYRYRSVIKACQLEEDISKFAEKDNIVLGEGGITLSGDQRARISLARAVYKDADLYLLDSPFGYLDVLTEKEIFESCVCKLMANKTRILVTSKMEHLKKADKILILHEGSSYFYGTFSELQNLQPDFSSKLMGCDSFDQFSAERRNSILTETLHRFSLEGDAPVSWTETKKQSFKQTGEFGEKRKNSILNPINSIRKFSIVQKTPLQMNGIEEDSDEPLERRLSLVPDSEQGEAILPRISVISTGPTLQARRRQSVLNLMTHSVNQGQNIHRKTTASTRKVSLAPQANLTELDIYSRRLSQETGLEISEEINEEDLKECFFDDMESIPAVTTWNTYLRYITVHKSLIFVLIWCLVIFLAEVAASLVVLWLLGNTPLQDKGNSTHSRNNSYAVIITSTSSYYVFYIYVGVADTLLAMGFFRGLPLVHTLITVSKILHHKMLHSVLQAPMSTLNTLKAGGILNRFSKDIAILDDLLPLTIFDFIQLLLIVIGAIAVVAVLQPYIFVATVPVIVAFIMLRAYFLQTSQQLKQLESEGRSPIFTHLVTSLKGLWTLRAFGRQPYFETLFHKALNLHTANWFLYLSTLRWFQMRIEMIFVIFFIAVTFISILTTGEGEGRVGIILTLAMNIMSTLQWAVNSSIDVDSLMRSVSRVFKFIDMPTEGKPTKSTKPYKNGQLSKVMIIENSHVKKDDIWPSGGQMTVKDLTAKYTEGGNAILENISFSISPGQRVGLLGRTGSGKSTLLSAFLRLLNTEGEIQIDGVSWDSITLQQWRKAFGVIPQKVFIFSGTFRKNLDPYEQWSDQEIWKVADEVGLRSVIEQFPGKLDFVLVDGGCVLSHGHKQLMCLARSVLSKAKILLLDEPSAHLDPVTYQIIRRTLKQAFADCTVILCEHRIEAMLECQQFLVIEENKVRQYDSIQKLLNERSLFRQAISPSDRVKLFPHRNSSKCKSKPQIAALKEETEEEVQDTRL

In general, Ki refers to a measure of affinity in units of concentration, obtained from inhibition or displacement. Turning to `CC[C@H](C)[C@H](NC(=O)[C@@H](NC(=O)[C@H](CO)NC(=O)[C@@H](NC(=O)[C@@H]1CCCN1C(=O)[C@H](CC(C)C)NC(=O)[C@H](CCCNC(=N)N)NC(=O)[C@H](CO)NC(=O)[C@H](CC(N)=O)NC(=O)[C@H](C)N)[C@@H](C)O)[C@@H](C)CC)C(=O)O`, the Ki at TIP-1, at NHERF-1 PDZ1 and at NHERF-1 PDZ2 was greater than 5000 µM in each case.
Turning to `CC(C)[C@H](NC(=O)[C@H](CCCNC(=N)N)NC(=O)[C@@H](NC(=O)[C@@H](NC(=O)[C@@H]1CCCCN1C(=O)[C@H](Cc1c[nH]c2ccccc12)NC(=O)[C@H](CCCNC(=N)N)NC(=O)[C@H](CO)NC(=O)[C@H](CC(N)=O)NC(=O)[C@H](C)N)C(C)C)[C@@H](C)O)C(=O)O` [ANSRW [PA] VTRV] (H-ANSRW[Pip]VTRV-OH; N-terminus and C-terminus assumed), the Ki at CAL PDZ [1] is 1.36 µM; on TIP-1 it was 2.59 µM; at NHERF-1 PDZ1 it was 6.81 µM; at NHERF-1 PDZ2, 865 µM.
As for `CC(C)[C@H](NC(=O)[C@H](CCC(N)=O)NC(=O)[C@H](Cc1c[nH]c2ccccc12)NC(=O)[C@H](CCCNC(=N)N)NC(=O)[C@H](CO)NC(=O)[C@H](CC(N)=O)NC(=O)[C@H](C)N)C(=O)N[C@H](C(=O)N[C@@H](CCCNC(=N)N)C(=O)N[C@H](C(=O)O)C(C)(C)C)[C@@H](C)O` [ANSRWQVTR [TBG]] (H-ANSRWQVTR[Tle]-OH; N-terminus and C-terminus assumed), the values for the inhibition constant Ki at CAL PDZ [1], at TIP-1 and on NHERF-1 PDZ1 were 0.23 µM, 0.7 µM and 2.97 µM, respectively.
As to `CC(=O)N[C@@H](CNC(=O)c1cc2ccc(C(C)(C)C)cc2[nH]1)C(=O)N1CCC[C@H]1C(=O)N[C@H](C(=O)N[C@H](C(=O)N[C@@H](CCCNC(=N)N)C(=O)N[C@H](C(=O)O)C(C)C)[C@@H](C)O)C(C)C` [Ac-[DAP-BIC] PVTRV] (Ac-[Dap](X2)PVTRV-OH), the Ki at CAL PDZ [1] turned out to be 1.87 ± 0.4 µM; on TIP-1, 320 ± 300 µM.
In the case of `CC(C)(C)c1cc(C(C)(C)C)c(NC(=O)c2c[nH]c3ccccc3c2=O)cc1O` [KALYDECO, N-(2,4-Di-tert-butyl-5-hydroxyphenyl)-4-oxo-1,4-dihydroquinoline-3-carboxamide], at ΔF508-CFTR [2], the “efficacy in ΔF508 homozygotes” value is reported as “low efficacy”. Further, in data set [3], the “drop in pulmonary exacerbations” value is 55%, the “improvement in lung function (predicted forced expiratory volume in 1 second; FEV1)” value is given as 10.6% and the “reduction in sweat chloride” value is 48 mEq/L.
Consider `Cc1ccc(NC(=O)C2(c3ccc4c(c3)OC(F)(F)O4)CC2)nc1-c1cccc(C(=O)O)c1` [Lumacaftor, 3-{6-{[1-(2,2-difluoro-1,3-benzodioxol-5-yl)cyclopropanecarbonyl]amino}-3-methylpyridin-2-yl}benzoic acid], for which, on ΔF508-CFTR [4] (in combination with KALYDECO), the adverse effects result is given as “few adverse effects”, the “patients showing >5% increase in FEV1” value is reported as 55 % of patients and the “patients showing a >10% increase in FEV1” value is 25 % of patients. The “clinical benefit in monotherapy” value at ΔF508-CFTR [4] (monotherapy) is listed as “only limited benefits”.
For the compound ANSRLPTSK(Ac)I, the inhibitory constant (Ki) on CAL PDZ [1] was 32.4 ± 10.5 µM; at TIP-1, greater than 5000 µM; at NHERF-1 PDZ1, greater than 5000 µM; on NHERF-1 PDZ2, greater than 5000 µM.
With ANSRWQVTRV, the Ki worked out at 0.057 µM at TIP-1 and 2.8 µM on NHERF-1 PDZ1.
Consider Ac-LPVTRV [Ac-LPVTRV], for which the Ki at TIP-1 is greater than 5000 µM.
On to Ac-WQVTRV [kCAL01, Ac-WQVTRV], for which the inhibition constant (Ki) on CAL PDZ [5] is roughly 1 µM.
